Reference: US20020016330A1, “Materials and methods for killing nematodes and nematode eggs” (priority 2000, published 2002)

Key:
[1] = tested on: Caenorhabditis elegans; assay: C. elegans L1 nematicidal dose response, 5 day visual viability score (3-fold dilutions); type: in vivo; parameters: key: Dead: only stiff L1s (no movement); Dead (L4): worms are dead, but at a later larval stage; majority of worms are L1 (based on size); majority of worms are L2 (based on size); majority of worms are L3 (based on size); majority of worms are L4 (based on size); AD: majority of worms are adult; #AD: 5 adult worms or less; B!: sterile (0-25 progeny); B: low broodsize (25-100 progeny); ˜B: moderate broodsize (100-250 progeny); <: reduced broodsize (250-500 progeny); OK: no effect (˜1000+ progeny); conditions: for 5 Day Visual Score V4: 2.6 μM; for 5 Day Visual Score V5: 0.9 μM; for 5 Day Visual Score V3: 7.8 μM; for 5 Day Visual Score V2: 23.3 μM; for 5 Day Visual Score V1: 70 μM; for 5 Day Visual Score V6: 0.3 μM
Experimental: Caenorhabditis elegans adults were grown on Nematode Growth Medium (NGM) until they produced eggs, then the adults were removed.
The eggs were allowed to hatch, and the L1 larvae collected. See The Nematode Caenorhabditis elegans (1988) Cold Spring Harbor Laboratory Press. Using a Matrix Programmable Pipette, the L1s were distributed into 96-well tissue culture plates, 20 L1 in 50 μl NGM per well. Antibiotic/Antimyotic was added to each well, and 1% by weight E. coli strain HB101. The subject anthelmintic compounds were stored at 5 mM in 100% DMSO. 0.7 μl of compounds 1-31 were added to the left-most column of wells to yield a final concentration of 70 μM in 1.4% DMSO, with 1.4% DMSO only as the control. The compounds were then subjected to 5 more 3-fold dilutions from left to right to yield 6 column concentrations of 70 μM, 23.3 μM, 7.8 μM, 2.6 μM, 0.9 μM, and 0.3 μM. Plates were stored in air-tight Rubbermaid plastic boxes at 20° C. The nematodes had cleared all control wells by day 4, and nematode viability was scored by visual examination under a 100× dissecting microscope on day 5. A visual viability scoring system was used as follows:
Column VI has a compound concentration of 70 μM with sequential 3-fold dilutions reported in columns V2, V3, V4, V5, and V6, respectively, such that the V6 concentration was 0.3 μM.
(§1) The nematicidal activity of anthelmintic Compositions 48-68 were determined in accordance with the procedure outlined in Example 2.

[2] = tested on: Caenorhabditis elegans; assay: Initial HTS Run (mOD, % Run, visual score); conditions: in vivo
Experimental: as §1

[3] = tested on: Caenorhabditis elegans; assay: Follow-up HTS Run (mOD, % Run, visual score); conditions: in vivo
Experimental: as §1

[4] = Table 3, procedure of Example 2

| Structure (SMILES) | 5 Day Visual Score V4 ([1]; scored day 5) | 5 Day Visual Score V5 ([1]; scored day 5) | 5 Day Visual Score V3 ([1]; scored day 5) | 5 Day Visual Score V2 ([1]; scored day 5) | 5 Day Visual Score V1 ([1]; scored day 5) | 5 Day Visual Score V6 ([1]; scored day 5) | further results |
| --- | --- | --- | --- | --- | --- | --- | --- |
| CCCCOc1ccc(C(=O)N2CC(OCCCc3ccccc3)CC2C(=O)NCc2ccccc2Br)cc1 (stereo not drawn) [AKC 102] | L3 |  |  |  |  |  |  |
| CCCCOc1ccc(-c2noc(C3CCC(NC(=O)c4ccc5c(c4)OCO5)CC3)n2)cc1 (stereo not drawn) [AKC 103] |  | L4/#AD/B | Dead(L4) | Dead(L3/L4 |  |  |  |
| CCOc1ccccc1C1=NOC(c2cccc3ccccc23)C1C(=O)NCc1ccc(OC(F)(F)F)cc1 (stereo not drawn) [AKC 105] | L2/Dead(L | L2/Dead(L | L2/Dead(L3) | L2/Dead(L3) | L2/Dead(L3) |  |  |
| O=C(Nc1ccc(OC(F)(F)F)cc1)NC1CCC(c2nc(-c3ccccc3)no2)CC1 (stereo not drawn) [AKC 107] | Dead(L4) |  |  | Dead(L2/L3) | Dead | L2/Dead(L |  |
| O=C(Nc1ccc(Br)cc1)N1CCC(c2nc(-c3ccccc3)no2)CC1 [AKC 108] | L1 |  | L1 | Dead | Dead |  |  |
| O=C(NCCc1ccccc1F)C1C(c2ccccc2Cl)=NOC1c1ccc(-c2ccccc2)cc1 (stereo not drawn) [AKC 110] | L1 | L1 | L1 | L1 | L1 | L1 |  |
| COc1ccccc1-c1noc(C(C)CNC(=O)Nc2ccc(OC(F)(F)F)cc2)n1 (stereo not drawn) [AKC 111] | Dead(L3/L |  | L2 | Dead | Dead | OK (no effect (˜1000+ progeny)) |  |
| Cc1ccc(-c2noc(C3CCC(CNC(=O)Nc4ccc(OC(F)(F)F)cc4)CC3)n2)cc1C (stereo not drawn) [AKC 112] |  | #AD/˜B |  |  |  | OK (no effect (˜1000+ progeny)) |  |
| O=C(NCC1CCC(c2nc(-c3ccccc3)no2)CC1)Nc1ccc(OC(F)(F)F)cc1 (stereo not drawn) [AKC 113] | Dead(L2/L |  | Dead | Dead | Dead | L4/#AD/B |  |
| O=C(Nc1ccc(Br)cc1)NC1CCC(c2nc(-c3ccccc3)no2)CC1 (stereo not drawn) [AKC 114] | L3/Dead(L |  | L3 | L3/Dead(L4) | Dead |  |  |
| O=C(NCCCCCc1nc(-c2ccccc2)no1)Nc1ccc(OC(F)(F)F)cc1 [AKC 115] | Dead(L2) | Dead(L2/L | L2/Dead(L2) | Dead(L2/L3) | Dead |  |  |
| CC(C)(C)C1=NOC(c2ccc(-c3ccccc3)cc2)C1C(=O)NCCc1ccccc1F (stereo not drawn) [AKC 120] |  | #AD/˜B | L1 |  | L1 | OK (no effect (˜1000+ progeny)) |  |
| COc1ccc(C2=NOC(c3ccc(-c4ccccc4)cc3)C2C(=O)NCCc2ccccc2F)cc1 (stereo not drawn) [AKC 121] | #AD/˜B |  |  | L1 | L1 |  |  |
| CCOc1ccc(C2ON=C(c3ccc(F)cc3)C2C(=O)NCCc2ccc(F)cc2)cc1 (stereo not drawn) [AKC 122] |  |  |  | L1 | Dead | OK (no effect (˜1000+ progeny)) |  |
| CCOc1ccc(C2ON=C(c3ccc(N(C)C)cc3)C2C(=O)NCCc2ccc(F)cc2)cc1 (stereo not drawn) [AKC 123] |  |  |  |  | L1 | #AD/˜B |  |
| CCOc1cccc(C2ON=C(c3ccccc3OCC)C2C(=O)NCCc2ccc(OC)c(OCC)c2)c1 (stereo not drawn) [AKC 124] | L4/#AD/B | L4/#AD/B |  |  |  | L4/#AD/B |  |
| CCOc1cccc(C2ON=C(c3ccccc3OCC)C2C(=O)NCc2ccc(OC(F)(F)F)cc2)c1 (stereo not drawn) [AKC 125] | L2 |  | L2 | L2/Dead(L4) | L2/Dead(L3) |  |  |
| CCCCOc1ccc(C(=O)N2CC(OCCCc3ccccc3)CC2C(=O)NCc2ccccc2OC)cc1 (stereo not drawn) [AKC 126] | #AD/˜B |  |  |  |  | #AD/˜B |  |
| Cc1ccc(C(CC(=O)c2ccccc2)Nc2ccc(I)cc2)o1 (stereo not drawn) [AKC 128] | L1 | #AD/˜B | Dead | Dead | Dead | OK (no effect (˜1000+ progeny)) |  |
| Cc1ccc(C(CC(=O)c2ccccc2)Nc2ccc(I)cc2F)o1 (stereo not drawn) [AKC 129] |  | OK (no effect (˜1000+ progeny)) |  | Dead | Dead |  |  |
| CCC(=O)C(C)C(Nc1cc(Br)c(C)c(Br)c1)c1ccc(C)o1 (stereo not drawn) [AKC 131] | #AD/˜B | #AD/˜B | #AD/˜B | L1 | Dead |  |  |
| CCCc1ccc(C(Nc2ccc(-c3ccccc3)cc2)C2CCCCC2=O)cc1 (stereo not drawn) [AKC 132] |  |  | Dead | Dead | Dead(L2) | Dead |  |
| Fc1ccc(N2CCN(c3nc(NCc4ccc(C(F)(F)F)cc4)ns3)CC2)cc1 [AKC 135] |  |  |  | L1 | Dead |  |  |
| CC(C)(C)c1csc(NC(=O)Cc2cn(Cc3ccccc3Cl)c3ccc(Cl)cc23)n1 [AKC 157] |  |  |  |  |  |  | 5 Day Visual Score V6 [1, 4]: OK (no effect (˜1000+ progeny)); 5 Day Visual Score V5 [1, 4]: OK (no effect (˜1000+ progeny)); 5 Day Visual Score V4 [1, 4]: < (reduced broodsize (250-500 progeny)); 5 Day Visual Score V3 [1, 4]: < (reduced broodsize (250-500 progeny)); 5 Day Visual Score V2 [1, 4]: OK (no effect (˜1000+ progeny)); Initial HTS Run % Run [2]: 98%; Initial HTS Run mOD [2]: 120 mOD; Follow-up HTS Run % Run [3]: 108%; Follow-up HTS Run mOD [3]: 174 mOD |
| CC(C)(C)c1csc(NC(=O)Cc2cn(Cc3cccnc3)c3ccc(Cl)cc23)n1 [AKC 162] |  |  |  |  |  |  | 5 Day Visual Score V6 [1, 4]: OK (no effect (˜1000+ progeny)); 5 Day Visual Score V5 [1, 4]: OK (no effect (˜1000+ progeny)); 5 Day Visual Score V4 [1, 4]: OK (no effect (˜1000+ progeny)); 5 Day Visual Score V3 [1, 4]: OK (no effect (˜1000+ progeny)); 5 Day Visual Score V2 [1, 4]: OK (no effect (˜1000+ progeny)); 5 Day Visual Score V1 [1, 4]: < (reduced broodsize (250-500 progeny)); Initial HTS Run % Run [2]: 111%; Initial HTS Run Visual Score [2]: L2/L3/1AD/B!; Initial HTS Run mOD [2]: 136 mOD; Follow-up HTS Run % Run [3]: 111%; Follow-up HTS Run Visual Score [3]: B (low broodsize (25-100 progeny)); Follow-up HTS Run mOD [3]: 179 mOD |
| CC(=O)Nc1ccc(S(=O)(=O)N2CCN(C(=O)c3cc(C(F)(F)F)cc(C(F)(F)F)c3)CC2C(=O)NCc2ccccc2)cc1 (stereo not drawn) [AKC 163] |  |  |  |  |  |  | 5 Day Visual Score V6 [1, 4]: OK (no effect (˜1000+ progeny)); 5 Day Visual Score V5 [1, 4]: OK (no effect (˜1000+ progeny)); 5 Day Visual Score V4 [1, 4]: OK (no effect (˜1000+ progeny)); 5 Day Visual Score V3 [1, 4]: OK (no effect (˜1000+ progeny)); 5 Day Visual Score V2 [1, 4]: < (reduced broodsize (250-500 progeny)); Initial HTS Run % Run [2]: 119%; Initial HTS Run Visual Score [2]: L2/L3(DEAD); Initial HTS Run mOD [2]: 146 mOD; Follow-up HTS Run % Run [3]: 136%; Follow-up HTS Run mOD [3]: 219 mOD |
| CCC1CCCCN1c1cc(Oc2ccc3oc4ccccc4c3c2)ncn1 (stereo not drawn) [AKC 340] |  |  |  | L1 | L1 |  |  |
| O=C(NCCc1ccccc1F)C1C(c2ccc(F)cc2)=NOC1c1ccc(-c2ccccc2)cc1 (stereo not drawn) [AKC 2153] |  |  |  | L1 | L1 |  |  |
